{"source": "ChEMBL document CHEMBL1201862", "about": "“PubChem BioAssay data set” (2004)", "key": {"[1]": {"biological_target": "Envelope glycoprotein gp160 (Human immunodeficiency virus 1, UniProt Q6QLK5)", "sequence (Q6QLK5 whole entry, the tested form may be a part)": "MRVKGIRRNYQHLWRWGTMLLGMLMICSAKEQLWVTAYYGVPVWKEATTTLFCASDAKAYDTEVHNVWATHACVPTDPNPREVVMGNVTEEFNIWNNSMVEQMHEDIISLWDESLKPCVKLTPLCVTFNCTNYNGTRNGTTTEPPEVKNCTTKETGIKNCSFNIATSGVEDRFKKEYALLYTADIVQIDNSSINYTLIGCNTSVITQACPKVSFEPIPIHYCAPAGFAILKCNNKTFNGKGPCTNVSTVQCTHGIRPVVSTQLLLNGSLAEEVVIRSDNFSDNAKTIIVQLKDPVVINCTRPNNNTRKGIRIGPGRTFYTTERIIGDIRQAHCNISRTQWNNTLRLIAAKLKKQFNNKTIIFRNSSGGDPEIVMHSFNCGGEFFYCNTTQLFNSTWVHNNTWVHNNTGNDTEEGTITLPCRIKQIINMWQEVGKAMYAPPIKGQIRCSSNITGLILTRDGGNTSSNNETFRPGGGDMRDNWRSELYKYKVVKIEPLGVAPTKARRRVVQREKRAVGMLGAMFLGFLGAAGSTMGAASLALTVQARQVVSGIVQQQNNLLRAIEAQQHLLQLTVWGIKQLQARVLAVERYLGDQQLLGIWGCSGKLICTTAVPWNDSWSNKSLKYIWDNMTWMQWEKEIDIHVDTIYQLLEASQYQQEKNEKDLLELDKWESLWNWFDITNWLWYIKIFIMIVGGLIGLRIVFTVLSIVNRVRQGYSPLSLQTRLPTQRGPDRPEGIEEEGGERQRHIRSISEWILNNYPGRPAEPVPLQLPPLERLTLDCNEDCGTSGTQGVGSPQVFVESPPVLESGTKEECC", "assay": "inhibitors of HIV fusion peptide binding, primary screen, biochemical, uHTS, fluorescence dequenching (AID 1986)"}, "[2]": {"assay": "HIV-1 Env-mediated cell fusion inhibitors, dose response, CCR5-tropic Env (AID 2279)", "format": "functional"}, "[3]": {"biological_target": "T1, Probable nicotinate-nucleotide adenylyltransferase (Staphylococcus aureus (strain N315), UniProt P65502)", "T1 sequence (P65502 whole entry)": "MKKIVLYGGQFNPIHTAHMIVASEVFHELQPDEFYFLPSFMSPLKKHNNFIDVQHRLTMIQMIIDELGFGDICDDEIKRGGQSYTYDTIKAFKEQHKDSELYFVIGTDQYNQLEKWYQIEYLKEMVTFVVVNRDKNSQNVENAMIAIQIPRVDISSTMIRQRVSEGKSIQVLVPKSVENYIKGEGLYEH", "format": "functional, Staphylococcus aureus subsp. aureus N315"}, "[4]": {"biological_target": "T1, Probable nicotinate-nucleotide adenylyltransferase", "format": "functional, Staphylococcus aureus subsp. aureus N315", "conditions": "read-out: IC50_Mean"}, "ELAV-like protein 1": {"biological_target": "ELAV-like protein 1 (Homo sapiens, UniProt Q15717)", "sequence (Q15717 whole entry)": "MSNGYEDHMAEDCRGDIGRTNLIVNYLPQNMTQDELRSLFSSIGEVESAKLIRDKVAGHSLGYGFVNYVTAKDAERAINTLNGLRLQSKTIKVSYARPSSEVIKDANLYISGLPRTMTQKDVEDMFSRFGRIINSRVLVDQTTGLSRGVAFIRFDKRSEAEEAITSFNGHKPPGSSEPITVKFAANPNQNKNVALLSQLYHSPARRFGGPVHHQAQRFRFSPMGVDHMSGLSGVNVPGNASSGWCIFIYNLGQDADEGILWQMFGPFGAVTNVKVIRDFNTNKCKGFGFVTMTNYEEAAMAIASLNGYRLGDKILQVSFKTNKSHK", "assay": "Identify HuR specific inhibitors.", "format": "functional"}, "[5]": {"test_system": "Streptococcus sp. 'group A'", "assay": "growth inhibition of control SK(-) GAS strain, dose response, counter-screen for streptokinase expression inhibitor project, luminescence, kanamycin, BacTiterGlo, confirmation (AID 1900)", "format": "functional, organism-based"}, "[6]": {"biological_target": "Luciferin 4-monooxygenase (Photinus pyralis, UniProt P08659)", "sequence (P08659 whole entry)": "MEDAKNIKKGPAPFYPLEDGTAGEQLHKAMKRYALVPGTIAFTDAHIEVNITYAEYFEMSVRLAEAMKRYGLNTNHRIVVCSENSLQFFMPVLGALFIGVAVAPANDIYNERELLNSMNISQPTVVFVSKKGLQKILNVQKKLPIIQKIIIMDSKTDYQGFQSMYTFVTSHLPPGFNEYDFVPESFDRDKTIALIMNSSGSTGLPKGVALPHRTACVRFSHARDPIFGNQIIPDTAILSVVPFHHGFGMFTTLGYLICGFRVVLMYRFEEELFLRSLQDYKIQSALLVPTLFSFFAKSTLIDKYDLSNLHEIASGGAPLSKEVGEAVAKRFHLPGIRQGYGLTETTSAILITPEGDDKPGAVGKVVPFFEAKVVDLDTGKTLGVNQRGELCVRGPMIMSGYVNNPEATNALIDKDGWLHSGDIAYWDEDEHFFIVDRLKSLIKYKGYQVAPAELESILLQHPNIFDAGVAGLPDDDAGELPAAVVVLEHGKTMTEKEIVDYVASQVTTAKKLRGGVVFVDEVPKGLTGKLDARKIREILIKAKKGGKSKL", "assay": "Counter Screen for Luciferase-based Assay Positives. [Related pubchem assays: 620, 618, 411 ]"}, "[7]": {"biological_target": "Glyceraldehyde-3-phosphate dehydrogenase (Homo sapiens, UniProt P04406)", "sequence (P04406 whole entry)": "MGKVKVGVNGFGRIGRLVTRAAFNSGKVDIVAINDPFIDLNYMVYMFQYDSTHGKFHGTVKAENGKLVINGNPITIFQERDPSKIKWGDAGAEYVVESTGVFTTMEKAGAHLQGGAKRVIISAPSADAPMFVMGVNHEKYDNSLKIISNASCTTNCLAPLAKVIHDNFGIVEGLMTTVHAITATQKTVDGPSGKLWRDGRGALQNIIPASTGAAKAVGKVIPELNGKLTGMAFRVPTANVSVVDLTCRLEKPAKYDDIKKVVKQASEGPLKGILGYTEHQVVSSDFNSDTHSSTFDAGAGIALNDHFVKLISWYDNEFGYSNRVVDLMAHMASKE"}, "Streptokinase A": {"biological_target": "T2, Streptokinase A (Streptococcus pyogenes serotype M1, UniProt P10520)", "T2 sequence (P10520 whole entry)": "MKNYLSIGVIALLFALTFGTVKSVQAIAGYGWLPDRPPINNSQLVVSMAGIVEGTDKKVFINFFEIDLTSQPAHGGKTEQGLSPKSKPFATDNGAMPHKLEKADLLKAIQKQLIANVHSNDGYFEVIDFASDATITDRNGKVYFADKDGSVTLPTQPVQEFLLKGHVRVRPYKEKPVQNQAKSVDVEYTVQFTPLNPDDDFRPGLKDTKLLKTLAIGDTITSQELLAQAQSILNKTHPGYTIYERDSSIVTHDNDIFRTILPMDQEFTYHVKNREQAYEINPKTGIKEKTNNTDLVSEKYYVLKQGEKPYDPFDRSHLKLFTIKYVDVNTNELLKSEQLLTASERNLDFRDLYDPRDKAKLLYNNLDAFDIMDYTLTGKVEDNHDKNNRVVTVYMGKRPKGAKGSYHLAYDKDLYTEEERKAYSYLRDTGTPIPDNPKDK", "assay": "S. pyogenes streptokinase expression inhibitors, potency, dose response, plasminogen activation absorbance, OD405 (AID 1914);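 note: secreted streptokinase activity via plasminogen activation per viability signal from cell pellet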", "format": "functional, Streptococcus pyogenes M1 GAS"}, "[8]": {"assay": "microbe, parasite or virus in culture", "format": "functional", "conditions": "Mycobacterium tuberculosis"}, "HT-1080": {"test_system": "HT-1080", "assay": "cytotoxicity in HT1080 fibrosarcoma cells, cell-based, fluorescence readout (AID 620)", "format": "functional", "conditions": "Homo sapiens"}, "Streptococcus": {"test_system": "Streptococcus", "assay": "Group A Streptococcus viability loss, dose response, counter-screen for streptokinase expression inhibitor project, luminescence, BacTiterGlo (AID 1915);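 note: potency for reduction of bacterial viability or growth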", "format": "functional, organism-based"}, "[9]": {"biological_target": "G-protein coupled receptor 55 (Homo sapiens, UniProt Q9Y2T6)", "sequence (Q9Y2T6 whole entry)": "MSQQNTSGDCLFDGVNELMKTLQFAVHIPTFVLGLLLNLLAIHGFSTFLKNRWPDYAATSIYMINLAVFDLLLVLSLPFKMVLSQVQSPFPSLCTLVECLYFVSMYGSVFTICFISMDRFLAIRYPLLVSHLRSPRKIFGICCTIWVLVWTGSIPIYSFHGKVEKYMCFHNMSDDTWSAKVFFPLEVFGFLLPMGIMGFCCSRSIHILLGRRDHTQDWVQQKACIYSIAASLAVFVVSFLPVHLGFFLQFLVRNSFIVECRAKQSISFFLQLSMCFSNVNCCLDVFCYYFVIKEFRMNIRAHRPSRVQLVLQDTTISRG", "assay": "GPR55 agonists via beta-arrestin recruitment, primary screen, imaging, U2OS cells, beta-arrestin-GFP redistribution (AID 1961)", "format": "functional"}, "INS1": {"test_system": "INS1", "assay": "beta cell apoptosis inhibitors, cytokine rescue, dose response, luminescence, retest (AID 449756);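 note: cell death triggered by IL-1 beta plus TNF-alpha plus IFN-gamma mixture; protective hits raise ATP signal compared with cytokine alone wells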", "format": "functional, cell-based", "conditions": "Rattus norvegicus"}, "[10]": {"assay": "Artemis endonuclease inhibitor potency, dose response, biochemical, fluorescence intensity (AID 720701);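 note: Artemis endonuclease enzyme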", "format": "functional"}, "[11]": {"biological_target": "T3, Runt-related transcription factor 1/Core-binding factor subunit beta (Homo sapiens, UniProt Q01196+Q13951)", "T3 sequence (Q01196 whole entry, the tested form may be a part)": "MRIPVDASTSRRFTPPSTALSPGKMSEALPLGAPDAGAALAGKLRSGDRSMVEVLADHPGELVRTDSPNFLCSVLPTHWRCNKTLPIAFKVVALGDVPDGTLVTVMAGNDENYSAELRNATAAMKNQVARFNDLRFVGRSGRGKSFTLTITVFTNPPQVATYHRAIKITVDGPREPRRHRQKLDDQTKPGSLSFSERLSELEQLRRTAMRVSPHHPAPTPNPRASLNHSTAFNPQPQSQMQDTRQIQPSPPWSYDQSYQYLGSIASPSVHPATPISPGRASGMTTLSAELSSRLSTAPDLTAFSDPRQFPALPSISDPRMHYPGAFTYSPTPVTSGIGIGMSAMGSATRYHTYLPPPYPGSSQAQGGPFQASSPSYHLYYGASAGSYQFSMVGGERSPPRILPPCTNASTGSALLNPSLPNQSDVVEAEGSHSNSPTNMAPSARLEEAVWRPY", "T3 sequence (Q13951 whole entry, the tested form may be a part)": "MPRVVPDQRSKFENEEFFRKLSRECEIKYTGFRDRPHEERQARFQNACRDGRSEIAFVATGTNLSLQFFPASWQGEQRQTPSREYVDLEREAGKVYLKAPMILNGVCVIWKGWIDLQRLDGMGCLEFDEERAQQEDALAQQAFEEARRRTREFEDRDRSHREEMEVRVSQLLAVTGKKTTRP", "assay": "inhibitors of RUNX1 Runt–CBFb-SMMHC binding, primary screen, biochemical, FRET, Cerulean-Runt, Venus-CBFb-SMMHC, uHTS (AID 1434);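 note: partner is the CBFb-SMMHC leukemia fusion protein rather than wild-type CBFb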", "format": "protein assay"}, "[12]": {"biological_target": "T3, Runt-related transcription factor 1/Core-binding factor subunit beta", "assay": "inhibitors of RUNX1 Runt–CBFb-SMMHC binding, biochemical, TR-FRET (AID 1438)", "format": "protein assay"}, "Trypsin": {"biological_target": "Trypsin (Sus scrofa, UniProt P00761)", "sequence (P00761 whole entry)": "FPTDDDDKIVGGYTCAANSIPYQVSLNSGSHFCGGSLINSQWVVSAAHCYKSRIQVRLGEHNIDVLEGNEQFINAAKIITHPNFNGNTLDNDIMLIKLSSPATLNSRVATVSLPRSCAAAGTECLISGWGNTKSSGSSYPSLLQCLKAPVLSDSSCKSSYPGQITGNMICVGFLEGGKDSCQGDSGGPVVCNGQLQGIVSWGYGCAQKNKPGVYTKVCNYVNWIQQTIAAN", "assay": "porcine trypsin inhibitors, dose response, selectivity assay for Rce1 protease inhibitor project, biochemical, quenched peptide fluorescence, cherry-pick (AID 488789)"}, "CAAX prenyl protease 2 [13]": {"biological_target": "CAAX prenyl protease 2 (Saccharomyces cerevisiae S288c, UniProt Q03530)", "sequence (Q03530 whole entry)": "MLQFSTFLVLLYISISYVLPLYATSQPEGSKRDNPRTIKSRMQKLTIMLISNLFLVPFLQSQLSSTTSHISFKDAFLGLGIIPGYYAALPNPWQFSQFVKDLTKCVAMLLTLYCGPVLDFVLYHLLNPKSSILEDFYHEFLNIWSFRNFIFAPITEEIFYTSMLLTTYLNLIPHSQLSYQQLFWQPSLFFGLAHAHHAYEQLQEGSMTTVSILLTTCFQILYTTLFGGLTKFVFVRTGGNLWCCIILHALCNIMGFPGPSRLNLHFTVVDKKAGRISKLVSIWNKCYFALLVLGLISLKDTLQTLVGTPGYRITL", "format": "biochemical"}, "CAAX prenyl protease 2 [14]": {"biological_target": "T4, CAAX prenyl protease 2 (Homo sapiens, UniProt Q9Y256)", "T4 sequence (Q9Y256 whole entry)": "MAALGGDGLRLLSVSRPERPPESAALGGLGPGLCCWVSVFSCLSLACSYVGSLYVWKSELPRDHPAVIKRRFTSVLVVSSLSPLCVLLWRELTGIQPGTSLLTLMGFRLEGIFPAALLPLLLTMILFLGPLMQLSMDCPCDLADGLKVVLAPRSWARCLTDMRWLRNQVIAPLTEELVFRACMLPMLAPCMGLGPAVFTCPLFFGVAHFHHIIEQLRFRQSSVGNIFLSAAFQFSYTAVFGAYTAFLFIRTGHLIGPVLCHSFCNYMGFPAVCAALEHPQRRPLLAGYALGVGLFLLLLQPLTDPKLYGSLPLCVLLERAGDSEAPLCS", "assay": "human Rce1 protease inhibitors, dose response, biochemical, yeast membranes, quenched-peptide fluorescence, cherry-pick (AID 588849)"}, "[15]": {"assay": "HeLa cell cytotoxicity, dose response, cytotoxicity control for MgcRacGAP inhibitor project (AID 624300)", "format": "functional"}, "[16]": {"biological_target": "T5, Rac GTPase-activating protein 1 (Homo sapiens, UniProt Q9H0H5)", "T5 sequence (Q9H0H5 whole entry)": "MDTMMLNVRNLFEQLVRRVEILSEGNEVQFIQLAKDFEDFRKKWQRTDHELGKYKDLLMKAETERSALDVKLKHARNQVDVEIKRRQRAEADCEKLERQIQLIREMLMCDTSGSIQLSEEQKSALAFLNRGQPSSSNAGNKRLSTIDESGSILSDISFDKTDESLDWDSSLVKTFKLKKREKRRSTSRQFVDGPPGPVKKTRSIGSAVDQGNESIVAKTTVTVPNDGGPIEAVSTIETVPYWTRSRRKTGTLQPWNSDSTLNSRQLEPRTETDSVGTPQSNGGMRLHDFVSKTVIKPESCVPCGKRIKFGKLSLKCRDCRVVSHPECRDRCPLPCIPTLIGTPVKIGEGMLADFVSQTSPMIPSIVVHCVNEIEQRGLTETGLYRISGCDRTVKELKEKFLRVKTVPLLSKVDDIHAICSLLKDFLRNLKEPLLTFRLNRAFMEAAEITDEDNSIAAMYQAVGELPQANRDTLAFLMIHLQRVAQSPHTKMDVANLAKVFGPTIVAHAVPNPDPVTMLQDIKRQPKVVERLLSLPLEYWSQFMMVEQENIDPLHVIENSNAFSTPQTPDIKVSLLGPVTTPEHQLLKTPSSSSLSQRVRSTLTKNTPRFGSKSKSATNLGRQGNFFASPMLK", "assay": "MgcRacGAP GTPase-activating activity inhibitors, confirmation, biochemical, ADP Hunter fluorescence, primary and confirmatory (AID 624330)", "format": "functional"}, "[17]": {"biological_target": "E3 ubiquitin-protein ligase Mdm2/Protein Mdm4 (Homo sapiens, UniProt O15151+Q00987)", "sequence (Q00987 whole entry)": "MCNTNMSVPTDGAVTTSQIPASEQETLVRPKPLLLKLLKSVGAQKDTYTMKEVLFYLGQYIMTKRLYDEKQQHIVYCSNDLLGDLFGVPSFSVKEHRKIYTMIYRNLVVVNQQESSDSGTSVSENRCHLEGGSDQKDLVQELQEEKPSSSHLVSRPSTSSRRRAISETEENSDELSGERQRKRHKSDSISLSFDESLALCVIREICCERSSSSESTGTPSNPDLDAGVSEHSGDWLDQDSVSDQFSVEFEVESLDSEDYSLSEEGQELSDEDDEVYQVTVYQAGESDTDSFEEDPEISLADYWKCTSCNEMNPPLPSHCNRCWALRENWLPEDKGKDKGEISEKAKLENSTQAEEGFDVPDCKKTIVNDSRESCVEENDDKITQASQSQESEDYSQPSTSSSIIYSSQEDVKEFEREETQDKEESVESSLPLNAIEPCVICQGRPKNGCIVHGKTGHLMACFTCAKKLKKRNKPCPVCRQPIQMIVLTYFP", "sequence (O15151 whole entry)": "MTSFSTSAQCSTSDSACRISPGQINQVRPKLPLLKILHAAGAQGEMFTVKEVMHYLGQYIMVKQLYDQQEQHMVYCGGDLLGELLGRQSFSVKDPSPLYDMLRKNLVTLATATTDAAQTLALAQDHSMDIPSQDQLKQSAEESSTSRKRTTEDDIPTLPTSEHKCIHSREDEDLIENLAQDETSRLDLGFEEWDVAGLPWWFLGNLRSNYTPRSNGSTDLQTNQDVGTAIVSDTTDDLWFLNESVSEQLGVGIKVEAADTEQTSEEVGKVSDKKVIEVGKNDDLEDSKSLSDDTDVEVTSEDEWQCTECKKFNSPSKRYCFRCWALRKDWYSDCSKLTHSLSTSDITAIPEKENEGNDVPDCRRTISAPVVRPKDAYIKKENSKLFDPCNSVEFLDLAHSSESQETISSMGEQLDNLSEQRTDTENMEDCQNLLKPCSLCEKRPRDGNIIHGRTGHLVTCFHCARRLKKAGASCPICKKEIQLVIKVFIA", "assay": "Mdm2-MdmX interaction inhibitors, dose response, luminescence detection (AID 504593)", "format": "functional"}}, "note": "Calls of active or inactive are those of the source.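 Throughout, for IC50 Mean: confirmatory dose-response retesting of NadD inhibitor hits first found in an ultra-high-throughput screen.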", "data": [{"smiles": "COC1C(OC(=O)c2ccc(C)[nH]2)C(O)C(Oc2ccc3c(O)c(NC(=O)c4ccc(O)c(CC=C(C)C)c4)c(=O)oc3c2Cl)OC1(C)C", "note": "(stereo not drawn)", "values": [{"measurement": "IC50", "setting": "[1]", "result": "13 µM (active)"}, {"measurement": "IC50", "setting": "[2]", "result": "38.4 µM (active)"}, {"measurement": "IC50", "setting": "[3]", "result": "2.1 µM (active)"}, {"measurement": "IC50", "setting": "[4]", "result": "7.01 µM (active)"}, {"measurement": "IC50", "setting": "ELAV-like protein 1", "result": "41.9 µM (active)"}]}, {"smiles": "Cc1cc(/C=N/n2cnnc2)c(C)n1-c1ccc(OCc2ccc(Cl)cc2Cl)cc1", "values": [{"measurement": "EC50", "setting": "[5]", "result": "2.46 µM (active)"}, {"measurement": "EC50", "setting": "[6]", "result": "0.28 µM (active)"}, {"measurement": "IC50", "setting": "[7]", "result": "> 100 µM (not active)"}, {"measurement": "EC50", "setting": "Streptokinase A", "result": "> 150 µM (not active)"}, {"measurement": "CC50", "setting": "[8]", "result": "14.1 µM (active)"}, {"measurement": "EC50", "setting": "HT-1080", "result": "> 50 µM (not active)"}, {"measurement": "EC50", "setting": "Streptococcus", "result": "4.73 µM (active)"}, {"measurement": "EC50", "setting": "[9]", "result": "1.35 µM (active)"}, {"measurement": "AC50", "setting": "INS1", "result": "1.6 µM (active)"}, {"measurement": "IC50", "setting": "[10]", "result": "5.84 µM (active)"}]}, {"smiles": "Cc1cc(C)n2nc3nc4c(cc3c2n1)CCCC4", "values": [{"measurement": "IC50", "setting": "[11]", "result": "36.8 µM (active)"}, {"measurement": "IC50", "setting": "[12]", "result": "> 100 µM (inactive)"}]}, {"smiles": "COc1cc(-c2nc3ccccn3c2NCC2CCCO2)ccc1O", "note": "(stereo not drawn)", "values": [{"measurement": "AC50", "setting": "Trypsin", "result": "12.8 µM (active)"}, {"measurement": "AC50", "setting": "CAAX prenyl protease 2 [13]", "result": "23.4 µM (active)"}, {"measurement": "AC50", "setting": "CAAX prenyl protease 2 [14]", "result": "6.82 µM (active)"}, {"measurement": "CC50", "setting": "[15]", "result": "100 µM (active)"}, {"measurement": "IC50", "setting": "[16]", "result": "49.9 µM (active)"}]}, {"smiles": "COc1cc(-c2nc(-c3ccc(NC(=O)c4ccc5c(c4)OCO5)cc3)no2)cc(OC)c1OC", "values": [{"measurement": "IC50", "setting": "[17]", "result": "3.91 µM (active)"}]}]}
